Data reported in patent US20220056123A1, “USE OF IL-1BETA BINDING ANTIBODIES” (NOVARTIS AG, priority 2018, published 2022).

Tests used:
SW480 = test: CRC SW480 xenograft in humanized BLT mice; assay type: in vivo, humanized mouse
Description: (§1) • I. Tumor models: The role of IL-1β in tumor immunity and efficacy of IL-1β blocking antibodies were tested in the following preclinical models: • Xenograft tumors in humanized mouse models: NSCLC (H358), TNBC (MDA-MB231) and CRC (SW480) • Syngeneic tumor models: TNBC (4T1) and lung (LL-2) cancer • II. […] Combination treatments include chemotherapeutic agent, docetaxel (6.25 mg/Kg QW IV), PD-1 pathway inhibitors (anti-human PD-1, pembrolizumab 10 mg/Kg Q5D IP or anti-mouse PD-1, clone 1D2 10 mg/Kg QW IP) and anti-mouse VEGF blocking antibody (clone 4G3, 5 mg/Kg Q5D) were used in combination with anti-IL-1β antibody. Appropriate isotype controls were used. In all experiments, dosing was initiated after tumor implantation. • III. Experimental readouts: activity of therapeutic agents in preclinical models were assessed by the following: • Tumor volume was determined by measurement with calipers throughout the course of the study. Tumor weights in milligrams were determined at end of study • Immunohistochemistry analysis was performed on FFPE NSCLC (H358) xenograft tissue • Changes in immune populations in peripheral blood in CRC (SW480) xenograft humanized model and tumors in syngeneic models (4T1 and LL-2) were assessed by flow cytometry using markers for T cell, myeloid populations

[1] = Gevokizumab clinical pharmacokinetics; assay type: in vivo, human
hsCRP = hsCRP change after gevokizumab treatment in type 2 diabetes patients; assay type: in vivo, human; settings: top dose 0.3 mg/kg (~20 mg) Q4W
Text: FIG. 12. Clinical data after gevokizumab treatment (panel a) and its extrapolation to higher doses (panels b, c, and d). Adjusted percent change from baseline in hsCRP in patients in a). The hsCRP exposure-response relationship is shown in b) for six different hsCRP base line concentrations.

4T1 tumors = 4T1 tumors treated with 01BSUR and docetaxel; assay type: in vivo, Balb/c mice
Description: Treatment of 4T1 Tumors with 01BSUR and Docetaxel Leads to Alterations in the Tumor Microenvironment. Female Balb/c mice with 4T1 tumors implanted subcutaneously (s.c.) on the right flank were treated 8 and 15 days post-tumor implant initiating when the tumors reached about 100 mm^3 with the isotype antibody, docetaxel, 01BSUR, or a combination of docetaxel and 01BSUR. […] 5 days after the first dose, tumors were harvested and analyzed for changes to the infiltrating immune cell populations. This was done again at the end point of the study, 4 days after the second dose.
as §1

LL2 = test: Anti-IL-1β in combination with docetaxel in aggressive lung model (LL2); assay type: in vivo, mouse
Description: Preclinical Data on the Efficacy of Canakinumab in Combination with Docetaxel in the Treatment of Cancer.
as §1, with “In all experiments, dosing was initiated after tumor implantation. • III.” left out

[2] = system: MDA-MB-231Luc2-TdTomato cells; test: Spontaneous human breast cancer metastasis to human bone implants; assay type: in vivo, NOD SCID mice
Description: FIG. 4. Pharmacological blockade of IL-1B inhibits spontaneous metastasis to human bone in vivo. Female NOD-SCID mice bearing two 0.5 cm^3 pieces of human femoral bone received intra-mammary injections of MDA-MB-231Luc2-TdTomato cells. […] All animals were culled 35 days following tumour cell injection. Effects on bone metastases (a) were assessed in vivo and immediately post-mortem by luciferase imaging and confirmed ex vivo on histological sections. Data are shown as numbers of photons per second emitted 2 minutes following sub-cutaneous injection of D-luciferin. Effects on numbers of tumour cells detected in the circulation are shown in (b). *=P<0.01. **=P<0.001. ***=P<0.0001.
(§2) To model human breast cancer metastasis to human bone implants two human bone discs were implanted subcutaneously into 10-week old female NOD SCID mice (n=10/group) under isofluorane anaesthetic. Mice received an injection of 0.003 mg vetergesic and Septrin was added to the drinking water for 1 week following bone implantation. Mice were left for 4 weeks before injecting 1×10^5 MDA-MB-231 Luc2-TdTomato, MCF7 Luc2 or T47D Luc2 cells in 20% Martigel/79% PBS/1% toluene blue into the two hind mammary fat pads. Primary tumor growth and development of metastases was monitored weekly using an IVIS […] system (Caliper Life Sciences) following sub-cutaneous injection of 30 mg/ml D-luciferin (Invitrogen). On termination of experiments mammary tumors, circulating tumor cells, serum and bone metastases were resected. RNA was processed for downstream analysis by real time PCR, and cell lysates were taken for protein analysis and whole tissue for histology as previously described (Nutter et al., 2014; Ottewell et al., 2014a). […] Tumor cells, serum, and bone were subsequently resected for downstream analysis. Bone metastases were investigated following injection of 5×10^5 MDA-MB-231 GFP (control), MDA-MB-231-IV, MDA-MB-231-IL-1B-positive or MDA-MB-231-IL-1R1-positive cells into the lateral tail vein of 6 to 8-week old female BALB/c nude mice (n=12/group). Tumor growth in bones and lungs was monitored weekly by GFP imaging in live animals. Mice were culled 28 days after tumor cell injection at which timepoint hind limbs, lungs and serum were resected and processed for microcomputed tomography imaging (pCT), histology and ELISA analysis of bone turnover markers and circulating cytokines as described (Holen et al., 2016).
Whole blood was centrifuged at 10,000×g for 5 minutes and the serum removed for ELISA assays. The cell pellet was re-suspended in 5 ml of FSM lysis solution (Sigma-Aldrich, Pool, UK) to lyse red blood cells. Remaining cells were re-pelleted, washed 3× in PBS and re-suspended in a solution of PBS/10% FCS. Samples from 10 mice per group were pooled prior to isolation of TdTomato positive tumor cells using a MoFlow High performance cell sorter (Beckman Coulter, Cambridge UK) with the […] laser line from a Coherent I-90C tenable argon ion (Coherent, Santa Clara, Calif.). TdTomato fluorescence was detected by a 555LP dichroic long pass and a 580/30 nm band pass filter. Acquisition and analysis of cells was performed using Summit 4.3 software. After sorting, cells were immediately placed in RNA protect cell reagent (Ambion, Paisley, Renfrew, UK) and stored at −80° C. before RNA extraction. For counting numbers of circulating tumor cells, TdTomato fluorescence was detected using a 561 nm laser and an YL1-A filter (585/16 emission filter). Acquisition and analysis of cells was performed using Attune N×T software.

[3] = system: CD34+ blood vessels in trabecular bone; test: Bone microvasculature after suppression of IL-1β signalling; assay type: in vivo, BALB/c nude mice and C57BL/6 mice
Description: FIG. 7. IL-1β in the bone microenvironment stimulates expansion of the bone metastatic niche. Effects of adding 40 pg/ml or 5 ng/ml recombinant IL-1β to MDA-MB-231 or T47D breast cancer cells is shown in (a) and effects on adding 20 pg/ml, 40 pg/ml or 5 ng/ml IL-1B on proliferation of HS5, bone marrow, or OB1, osteoblasts, are shown in b) and c) respectively. (d) IL-1 driven alterations to the bone vasculature was measured following CD34 staining in the trabecular region of the tibiae from 10-12-week old female IL-1R1 knockout mice. […] Data are shown as mean+/−SEM, *=P<0.01, **=P<0.001, ***=P<0.0001.
FIG. 8. Suppression of IL-1β signalling affects bone integrity and vasculature. […] Data shown are mean+/−SEM, *=P<0.01, **=P<0.001, ***=P<0.0001 compared with control.
as §2

[4] = system: HR-positive, HER2-negative advanced breast cancer; settings: added to first-line endocrine therapy with tamoxifen/NSAI plus goserelin, pre- and peri-menopausal women; cited from earlier work

gevokizumab: high-affinity, humanized monoclonal antibody of the IgG2 isotype to interleukin-1β
animals with significant reduction in tumor volume (SW480; one of two experiments): 100 % of animals
animals with slower tumor growth (SW480; second experiment, compared to isotype control): 80 % of animals
Bioavailability ([1]; administered subcutaneously): about 56%
pharmacokinetic model ([1]; after subcutaneous administration): linear two-compartment model with first order absorption
reduction of hsCRP (hsCRP): up to 45%

CC(=O)O[C@@]12CO[C@@H]1C[C@H](O)[C@@]1(C)C(=O)[C@H](O)C3=C(C)[C@@H](OC(=O)[C@H](O)[C@@H](NC(=O)OC(C)(C)C)c4ccccc4)C[C@@](O)([C@@H](OC(=O)c4ccccc4)[C@H]21)C3(C)C [docetaxel]
granulocytic MDSC (4T1 tumors; 5 days after a single dose): decrease in granulocytic MDSC
neutrophils in 4T1 tumors (4T1 tumors; 5 days after a single dose): decrease in neutrophils
CD4+ and CD8+ T cells expressing TIM-3 (4T1 tumors; four days after a second dose, vs control group): no change in the TIM-3 expressing cells
tumor growth (4T1 tumors; treated days 8 and 15 post tumor implant, vs vehicle/isotype control): delay was enhanced
efficacy (tumor growth) (LL2): modest efficacy

IL-1Ra: IL-1R antagonist (Anakinra) used to inhibit IL-1β signaling
mice with metastasis detected in human bone implants ([2]; IL-1Ra 1 mg/kg daily, canakinumab sc every 14 days, from 7 days after tumor cell injection, control 7 out of 10): 4 out of 10
size of bone metastases ([2]; luciferase imaging, vs control group): smaller than those detected in the control group
tumor cells counted in whole blood ([2]; placebo 108 tumor cells/ml): 3 tumor cells/ml
average length of CD34+ blood vessels in trabecular bone ([3]; IL-1Ra 1 mg/kg daily (BALB/c nude), canakinumab single dose (C57BL/6), p<0.01): reduced the average length
endothelin 1 concentration (ELISA) ([3]; compared with control, p<0.01): reduced concentrations
VEGF concentration (ELISA) ([3]; compared with control, p<0.01 IL-1R antagonist, p<0.001 canakinumab): reduced concentrations

CN(C)C(=O)c1cc2cnc(Nc3ccc(N4CCNCC4)cn3)nc2n1C1CCCC1 [ribociclib]
progression-free survival (PFS) [4]: significantly prolonged progression-free survival
